Measurements as given in the kinase profiling compilation of Christmann-Franck et al. (2016).

How the values were obtained:
Test in all cases: radiometric filter-binding kinase assay, Kinase HotSpot
Settings in all cases: compound 0.5 µM; ATP 10 µM
AKT2 (human) = AKT2 (human) (UniProt P31751)
IGF1R (human) = IGF1R (human) (UniProt P08069)
GRK6 (human) = GRK6 (human) (UniProt P43250)
CDK6 CCND1 (human) = CDK6 CCND1 (human) (UniProt Q00534+P24385)
MST1R (human) = MST1R (human) (UniProt Q04912)
VRK1 (human) = VRK1 (human) (UniProt Q99986)
RPS6KA3 KD1 KD2 (human) = RPS6KA3 KD1 KD2 (human) (UniProt P51812)
MAP2K2 (human) = MAP2K2 (human) (UniProt P36507)
FGFR1 (human) = FGFR1 (human) (UniProt P11362)
NEK3 (human) = NEK3 (human) (UniProt P51956)
TAOK2 (human) = TAOK2 (human) (UniProt Q9UL54)
GSK3A (human) = GSK3A (human) (UniProt P49840)
ULK2 (human) = ULK2 (human) (UniProt Q8IYT8)
TNK2 (human) = TNK2 (human) (UniProt Q07912)
STK25 (human) = STK25 (human) (UniProt O00506)
PKN2 (human) = PKN2 (human) (UniProt Q16513)
MAP2K1 (human) = MAP2K1 (human) (UniProt Q02750)
RPS6KA5 KD2 (human) = RPS6KA5 KD2 (human) (UniProt O75582)
CDK9 CCNT1 (human) = CDK9 CCNT1 (human) (UniProt P50750+O60563)
STK33 (human) = STK33 (human) (UniProt Q9BYT3)
PIM3 (human) = PIM3 (human) (UniProt Q86V86)
ALK (human) = ALK (human) (UniProt Q9UM73)
NEK6 (human) = NEK6 (human) (UniProt Q9HC98)
NTRK2 (human) = NTRK2 (human) (UniProt Q16620)
MAP3K11 (human) = MAP3K11 (human) (UniProt Q16584)
SIK2 (human) = SIK2 (human) (UniProt Q9H0K1)
BRSK1 (human) = BRSK1 (human) (UniProt Q8TDC3)
PIM2 (human) = PIM2 (human) (UniProt Q9P1W9)
PRKD3 (human) = PRKD3 (human) (UniProt O94806)
FES (human) = FES (human) (UniProt P07332)
MAPK13 (human) = MAPK13 (human) (UniProt O15264)
WEE1 (human) = WEE1 (human) (UniProt P30291)
[1] = system: FLT4 (human), P35916 [Q890H]
STK16 (human) = STK16 (human) (UniProt O75716)
PRKCA (human) = PRKCA (human) (UniProt P17252)
GSG2 (human) = GSG2 (human) (UniProt Q8TF76)
STK4 (human) = STK4 (human) (UniProt Q13043)
LTK (human) = LTK (human) (UniProt P29376)
TSSK1B (human) = TSSK1B (human) (UniProt Q9BXA7)
CSNK1G1 (human) = CSNK1G1 (human) (UniProt Q9HCP0)
STK17A (human) = STK17A (human) (UniProt Q9UEE5)
CDK5 CDK5R1 p35 (human) = CDK5 CDK5R1 p35 (human) (UniProt Q00535+Q15078)

Chain of PKN2 (human) (Q16513 whole entry, looked up): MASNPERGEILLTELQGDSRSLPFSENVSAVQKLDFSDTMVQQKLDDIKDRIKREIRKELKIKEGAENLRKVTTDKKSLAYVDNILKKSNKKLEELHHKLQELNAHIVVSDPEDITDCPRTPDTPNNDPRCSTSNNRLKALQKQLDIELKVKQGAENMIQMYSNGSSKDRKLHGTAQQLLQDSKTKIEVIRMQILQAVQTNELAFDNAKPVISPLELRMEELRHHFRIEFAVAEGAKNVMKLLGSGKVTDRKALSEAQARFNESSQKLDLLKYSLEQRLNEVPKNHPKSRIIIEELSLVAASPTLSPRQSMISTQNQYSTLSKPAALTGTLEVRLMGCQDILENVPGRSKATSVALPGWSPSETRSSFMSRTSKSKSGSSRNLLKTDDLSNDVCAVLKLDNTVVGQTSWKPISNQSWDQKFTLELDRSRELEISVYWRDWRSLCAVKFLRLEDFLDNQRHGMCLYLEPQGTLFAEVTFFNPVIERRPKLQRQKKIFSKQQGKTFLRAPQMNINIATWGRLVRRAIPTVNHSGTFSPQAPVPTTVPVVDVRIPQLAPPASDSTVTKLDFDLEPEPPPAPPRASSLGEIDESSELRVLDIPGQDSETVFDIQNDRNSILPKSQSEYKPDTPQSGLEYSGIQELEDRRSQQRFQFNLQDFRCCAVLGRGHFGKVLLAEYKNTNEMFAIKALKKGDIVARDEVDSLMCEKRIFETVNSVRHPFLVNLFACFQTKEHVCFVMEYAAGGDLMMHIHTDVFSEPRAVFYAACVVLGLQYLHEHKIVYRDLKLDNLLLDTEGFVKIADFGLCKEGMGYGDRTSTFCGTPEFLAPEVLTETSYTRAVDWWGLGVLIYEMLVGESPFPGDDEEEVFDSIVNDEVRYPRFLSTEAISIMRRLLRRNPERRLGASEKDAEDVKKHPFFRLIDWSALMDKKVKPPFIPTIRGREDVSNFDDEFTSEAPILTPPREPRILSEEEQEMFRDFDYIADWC
Chain of RPS6KA5 KD2 (human) (O75582 whole entry, looked up): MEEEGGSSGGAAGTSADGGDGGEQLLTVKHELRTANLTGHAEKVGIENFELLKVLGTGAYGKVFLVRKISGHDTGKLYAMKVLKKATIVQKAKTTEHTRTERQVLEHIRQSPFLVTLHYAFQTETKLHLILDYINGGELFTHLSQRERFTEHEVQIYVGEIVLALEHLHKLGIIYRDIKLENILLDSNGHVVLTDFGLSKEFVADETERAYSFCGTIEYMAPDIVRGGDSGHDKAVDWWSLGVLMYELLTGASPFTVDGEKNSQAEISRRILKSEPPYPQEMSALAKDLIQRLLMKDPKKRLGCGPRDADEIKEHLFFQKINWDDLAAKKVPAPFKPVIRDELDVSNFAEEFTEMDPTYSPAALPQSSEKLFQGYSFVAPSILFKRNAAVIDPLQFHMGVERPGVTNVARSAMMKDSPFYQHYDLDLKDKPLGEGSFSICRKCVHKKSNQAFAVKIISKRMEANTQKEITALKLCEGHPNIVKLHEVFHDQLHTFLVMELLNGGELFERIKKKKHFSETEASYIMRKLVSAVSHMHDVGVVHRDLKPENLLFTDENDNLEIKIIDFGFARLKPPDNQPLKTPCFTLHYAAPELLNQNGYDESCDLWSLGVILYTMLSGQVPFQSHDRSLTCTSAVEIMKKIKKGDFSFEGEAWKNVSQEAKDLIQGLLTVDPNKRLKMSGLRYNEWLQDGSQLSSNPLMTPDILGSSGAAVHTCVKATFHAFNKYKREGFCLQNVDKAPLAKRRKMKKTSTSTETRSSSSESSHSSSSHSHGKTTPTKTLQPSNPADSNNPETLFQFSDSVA
Chain of CDK6 CCND1 (human) (P24385 whole entry, looked up): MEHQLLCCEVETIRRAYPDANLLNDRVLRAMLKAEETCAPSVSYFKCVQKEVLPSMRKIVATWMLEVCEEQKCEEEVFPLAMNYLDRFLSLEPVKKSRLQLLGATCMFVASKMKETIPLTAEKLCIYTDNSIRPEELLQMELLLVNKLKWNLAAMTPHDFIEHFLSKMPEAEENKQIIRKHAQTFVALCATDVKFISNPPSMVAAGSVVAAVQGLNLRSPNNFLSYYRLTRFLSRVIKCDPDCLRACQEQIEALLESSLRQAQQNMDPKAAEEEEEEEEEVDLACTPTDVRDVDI
Chain of CDK6 CCND1 (human) (Q00534 whole entry, looked up): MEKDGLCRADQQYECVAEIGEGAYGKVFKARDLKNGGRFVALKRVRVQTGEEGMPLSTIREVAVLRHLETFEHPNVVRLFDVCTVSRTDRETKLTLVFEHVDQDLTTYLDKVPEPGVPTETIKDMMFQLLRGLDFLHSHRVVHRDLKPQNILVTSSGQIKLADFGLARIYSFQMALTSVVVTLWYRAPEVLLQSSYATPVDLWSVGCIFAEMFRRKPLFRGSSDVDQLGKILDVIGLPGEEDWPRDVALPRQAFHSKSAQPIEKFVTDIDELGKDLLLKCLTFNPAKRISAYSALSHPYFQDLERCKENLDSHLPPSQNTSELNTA
Chain of AKT2 (human) (P31751 whole entry, looked up): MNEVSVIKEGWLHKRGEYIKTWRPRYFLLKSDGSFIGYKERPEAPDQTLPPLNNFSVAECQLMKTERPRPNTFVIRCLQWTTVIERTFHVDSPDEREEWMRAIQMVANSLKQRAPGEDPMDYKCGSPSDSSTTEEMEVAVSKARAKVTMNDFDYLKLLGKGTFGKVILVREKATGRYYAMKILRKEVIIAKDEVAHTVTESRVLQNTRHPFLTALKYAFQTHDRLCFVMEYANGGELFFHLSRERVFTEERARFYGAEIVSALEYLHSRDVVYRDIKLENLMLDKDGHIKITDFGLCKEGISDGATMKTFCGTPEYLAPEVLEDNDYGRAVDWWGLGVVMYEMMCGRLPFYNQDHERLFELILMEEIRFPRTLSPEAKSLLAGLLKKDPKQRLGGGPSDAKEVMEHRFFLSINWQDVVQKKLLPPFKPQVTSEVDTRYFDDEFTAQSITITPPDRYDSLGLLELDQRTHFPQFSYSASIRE
Chain of NEK6 (human) (Q9HC98 whole entry, looked up): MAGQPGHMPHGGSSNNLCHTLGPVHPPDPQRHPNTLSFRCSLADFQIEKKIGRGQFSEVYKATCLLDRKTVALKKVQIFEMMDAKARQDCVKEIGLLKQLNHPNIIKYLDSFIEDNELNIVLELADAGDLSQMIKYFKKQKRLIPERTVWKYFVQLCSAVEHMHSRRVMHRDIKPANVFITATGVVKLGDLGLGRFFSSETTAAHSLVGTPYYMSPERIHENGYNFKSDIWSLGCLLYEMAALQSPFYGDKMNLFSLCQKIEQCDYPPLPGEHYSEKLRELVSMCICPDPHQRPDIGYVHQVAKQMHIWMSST
Chain of TAOK2 (human) (Q9UL54 whole entry, looked up): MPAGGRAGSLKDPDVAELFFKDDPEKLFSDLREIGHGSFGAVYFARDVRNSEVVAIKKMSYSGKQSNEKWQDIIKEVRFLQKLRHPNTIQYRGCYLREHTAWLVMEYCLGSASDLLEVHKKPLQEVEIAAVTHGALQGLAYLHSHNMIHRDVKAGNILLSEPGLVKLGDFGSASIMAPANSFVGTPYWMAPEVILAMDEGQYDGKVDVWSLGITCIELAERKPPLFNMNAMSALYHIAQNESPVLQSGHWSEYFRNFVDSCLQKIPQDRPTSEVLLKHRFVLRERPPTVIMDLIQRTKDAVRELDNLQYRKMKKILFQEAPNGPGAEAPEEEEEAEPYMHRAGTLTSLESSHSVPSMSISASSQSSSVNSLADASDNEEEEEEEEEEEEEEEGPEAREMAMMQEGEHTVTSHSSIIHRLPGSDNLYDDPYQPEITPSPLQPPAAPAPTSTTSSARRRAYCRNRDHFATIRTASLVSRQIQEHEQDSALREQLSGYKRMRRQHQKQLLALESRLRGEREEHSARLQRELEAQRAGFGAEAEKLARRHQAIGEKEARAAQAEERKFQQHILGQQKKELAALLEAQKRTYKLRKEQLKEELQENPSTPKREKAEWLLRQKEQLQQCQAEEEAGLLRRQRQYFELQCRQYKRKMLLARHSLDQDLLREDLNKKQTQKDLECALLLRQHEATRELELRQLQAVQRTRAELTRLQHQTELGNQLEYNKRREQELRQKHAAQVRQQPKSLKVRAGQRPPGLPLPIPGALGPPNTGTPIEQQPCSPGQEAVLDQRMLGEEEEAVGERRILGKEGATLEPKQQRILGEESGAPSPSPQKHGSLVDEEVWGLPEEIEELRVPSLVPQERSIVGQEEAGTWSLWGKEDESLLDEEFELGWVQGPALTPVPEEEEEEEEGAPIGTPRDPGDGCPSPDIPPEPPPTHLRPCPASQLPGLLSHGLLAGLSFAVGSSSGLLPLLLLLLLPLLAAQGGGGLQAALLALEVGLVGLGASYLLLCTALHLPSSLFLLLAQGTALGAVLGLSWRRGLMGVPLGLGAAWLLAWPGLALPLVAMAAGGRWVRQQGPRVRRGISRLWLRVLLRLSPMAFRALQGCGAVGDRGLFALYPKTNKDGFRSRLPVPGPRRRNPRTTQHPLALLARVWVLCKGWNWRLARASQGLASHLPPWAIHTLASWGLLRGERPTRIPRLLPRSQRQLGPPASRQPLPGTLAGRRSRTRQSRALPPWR
Chain of MAP2K1 (human) (Q02750 whole entry, looked up): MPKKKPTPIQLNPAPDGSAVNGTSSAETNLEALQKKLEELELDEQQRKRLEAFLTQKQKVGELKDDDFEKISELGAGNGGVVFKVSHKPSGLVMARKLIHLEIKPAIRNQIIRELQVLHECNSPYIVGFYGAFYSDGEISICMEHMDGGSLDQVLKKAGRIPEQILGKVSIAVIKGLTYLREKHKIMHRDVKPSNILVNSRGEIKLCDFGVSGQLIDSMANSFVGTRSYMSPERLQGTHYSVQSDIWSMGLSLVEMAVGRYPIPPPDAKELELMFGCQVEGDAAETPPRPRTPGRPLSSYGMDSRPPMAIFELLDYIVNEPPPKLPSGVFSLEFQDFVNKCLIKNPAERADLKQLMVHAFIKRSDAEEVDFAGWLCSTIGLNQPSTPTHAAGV

## Cn1c2ccccc2c2c3c(c4c5ccccc5n(CCC#N)c4c21)CNC3=O
AKT2 (human)
  residual activity: 110%
IGF1R (human)
  residual activity: 98.3%
GRK6 (human)
  residual activity: 44.4%
CDK6 CCND1 (human)
  residual activity: 39.4%
MST1R (human)
  residual activity: 111%
VRK1 (human)
  residual activity: 84%
RPS6KA3 KD1 KD2 (human)
  residual activity: 5.93%
MAP2K2 (human)
  residual activity: 92.5%
FGFR1 (human)
  residual activity: 63.3%
NEK3 (human)
  residual activity: 133%
TAOK2 (human)
  residual activity: 13.3%
GSK3A (human)
  residual activity: 35.6%
ULK2 (human)
  residual activity: 92.9%
TNK2 (human)
  residual activity: 2.78%
STK25 (human)
  residual activity: 83.9%
PKN2 (human)
  residual activity: 67.7%
MAP2K1 (human)
  residual activity: 90.2%
RPS6KA5 KD2 (human)
  residual activity: 23.7%
CDK9 CCNT1 (human)
  residual activity: 46.8%
STK33 (human)
  residual activity: 26.5%
PIM3 (human)
  residual activity: 17.3%
ALK (human)
  residual activity: 12.2%
NEK6 (human)
  residual activity: 103%
NTRK2 (human)
  residual activity: 0.815%
MAP3K11 (human)
  residual activity: 2.19%
SIK2 (human)
  residual activity: 54.5%
BRSK1 (human)
  residual activity: 20.2%
PIM2 (human)
  residual activity: 101%
PRKD3 (human)
  residual activity: 7.3%
FES (human)
  residual activity: 78.4%
MAPK13 (human)
  residual activity: 104%
WEE1 (human)
  residual activity: 85.4%
[1]
  residual activity: 38.2%
STK16 (human)
  residual activity: 81.1%
PRKCA (human)
  residual activity: 7.58%
GSG2 (human)
  residual activity: 27.2%
STK4 (human)
  residual activity: 3.73%
LTK (human)
  residual activity: 8.79%
TSSK1B (human)
  residual activity: 10.1%
CSNK1G1 (human)
  residual activity: 93.3%
STK17A (human)
  residual activity: 85.3%
CDK5 CDK5R1 p35 (human)
  residual activity: 8.52%

## O=C1c2ccccc2-c2nc3nnnn3nc21
AKT2 (human)
  residual activity: 55.8%
IGF1R (human)
  residual activity: 91.1%
GRK6 (human)
  residual activity: 58%
CDK6 CCND1 (human)
  residual activity: 59.6%
MST1R (human)
  residual activity: 93.6%
VRK1 (human)
  residual activity: 90.5%
RPS6KA3 KD1 KD2 (human)
  residual activity: 75.1%
MAP2K2 (human)
  residual activity: 94.7%
FGFR1 (human)
  residual activity: 24.2%
NEK3 (human)
  residual activity: 111%
TAOK2 (human)
  residual activity: 91.9%
GSK3A (human)
  residual activity: 88.7%
ULK2 (human)
  residual activity: 105%
TNK2 (human)
  residual activity: 44.9%
STK25 (human)
  residual activity: 101%
PKN2 (human)
  residual activity: 77.1%
MAP2K1 (human)
  residual activity: 88.7%
RPS6KA5 KD2 (human)
  residual activity: 68.7%
CDK9 CCNT1 (human)
  residual activity: 97%
STK33 (human)
  residual activity: 107%
PIM3 (human)
  residual activity: 93.3%
ALK (human)
  residual activity: 83.5%
NEK6 (human)
  residual activity: 96.3%
NTRK2 (human)
  residual activity: 29.4%
MAP3K11 (human)
  residual activity: 69%
SIK2 (human)
  residual activity: 106%
BRSK1 (human)
  residual activity: 84.8%
PIM2 (human)
  residual activity: 92.8%
PRKD3 (human)
  residual activity: 83.4%
FES (human)
  residual activity: 87.6%
MAPK13 (human)
  residual activity: 95.6%
WEE1 (human)
  residual activity: 70.9%
[1]
  residual activity: 5.79%
STK16 (human)
  residual activity: 80.5%
PRKCA (human)
  residual activity: 91.4%
GSG2 (human)
  residual activity: 79.2%
STK4 (human)
  residual activity: 87.8%
LTK (human)
  residual activity: 177%
TSSK1B (human)
  residual activity: 88.7%
CSNK1G1 (human)
  residual activity: 85.2%
STK17A (human)
  residual activity: 83.8%
CDK5 CDK5R1 p35 (human)
  residual activity: 79.1%

## Cc1nc(-c2ccccc2)c(-c2ccncc2)o1
AKT2 (human)
  residual activity: 96.7%
IGF1R (human)
  residual activity: 99.9%
GRK6 (human)
  residual activity: 105%
CDK6 CCND1 (human)
  residual activity: 101%
MST1R (human)
  residual activity: 95.9%
VRK1 (human)
  residual activity: 98.5%
RPS6KA3 KD1 KD2 (human)
  residual activity: 103%
MAP2K2 (human)
  residual activity: 106%
FGFR1 (human)
  residual activity: 90.9%
NEK3 (human)
  residual activity: 93.7%
TAOK2 (human)
  residual activity: 101%
GSK3A (human)
  residual activity: 112%
ULK2 (human)
  residual activity: 102%
TNK2 (human)
  residual activity: 97.7%
STK25 (human)
  residual activity: 104%
PKN2 (human)
  residual activity: 93.4%
MAP2K1 (human)
  residual activity: 90.7%
RPS6KA5 KD2 (human)
  residual activity: 107%
CDK9 CCNT1 (human)
  residual activity: 84.6%
STK33 (human)
  residual activity: 99.3%
PIM3 (human)
  residual activity: 106%
ALK (human)
  residual activity: 108%
NEK6 (human)
  residual activity: 94.4%
NTRK2 (human)
  residual activity: 103%
MAP3K11 (human)
  residual activity: 98.7%
SIK2 (human)
  residual activity: 86.2%
BRSK1 (human)
  residual activity: 99.8%
PIM2 (human)
  residual activity: 110%
PRKD3 (human)
  residual activity: 94.3%
FES (human)
  residual activity: 101%
MAPK13 (human)
  residual activity: 114%
WEE1 (human)
  residual activity: 91.9%
[1]
  residual activity: 108%
STK16 (human)
  residual activity: 109%
PRKCA (human)
  residual activity: 98.3%
GSG2 (human)
  residual activity: 87.6%
STK4 (human)
  residual activity: 104%
LTK (human)
  residual activity: 107%
TSSK1B (human)
  residual activity: 108%
CSNK1G1 (human)
  residual activity: 91.1%
STK17A (human)
  residual activity: 99.5%
CDK5 CDK5R1 p35 (human)
  residual activity: 104%
